Experimental data from patent publication US20240424152A1, “AGENTS, COMPOSITIONS, AND METHODS FOR CANCER DETECTION” (The Johns Hopkins University, priority 2021, published 2024).
Entries after “also recorded” stand apart in the source; their conditions may differ. No end group written: not given here. *: point of attachment. NOTA = O=C(O)CN1CCN(CC(=O)O)CCN(CC(=O)*)CC1

How the values were obtained:
MDA-MB-231 tumors = assay: In vivo PET imaging in mice xenografted with MDA-MB-231 breast tumors; conditions: NOG mice, MDA-MB-231 xenograft, intravenous, 30 min post tracer injection; FIG. 2
Procedure: All animal studies were carried out per regulations set forth and approved by the Johns Hopkins Animal Care and Use Committee at the Johns Hopkins Molecular Imaging Service Center. Female, 6-8 weeks old, immunodeficient (NOG) mice were inoculated with MDA-MB-231 (2 million) cells in 100 μL of Hank's balanced salt solution in the top mammary fat pad. Tumors averaging 200-300 mm^3 (typically 14 days after inoculation) were used for in vivo imaging and ex vivo biodistribution studies.
For PET imaging, mice were intravenously injected with 9-10 MBq (240-270 μCi) of the radiolabeled peptide in 200 μL of saline. Whole body PET imaging (2 beds; 15 min per bed) was carried out using a SEDCAL SuperArgus small animal PET/CT scanner 30 min post tracer injection. Following PET image acquisition, a CT scan (512 projections) was obtained on the same system for anatomical co-registration. PET data were reconstructed using the 3-dimensional ordered-subsets expectation maximization (3D-OSEM) algorithm and corrected for dead time and radioactive decay. Final data visualization and image generation was carried out using the Amira (FEI) software. Quantitative in vivo image analysis was done in AMIDE 1.0.5 (SourceForge) using ellipsoid region-of-interest volume integrations. Percentage of injected dose per cubic centimeter of tissue (% ID/cc) was calculated based on an external calibration factor obtained from a known quantity of radioactivity.

[1] = system: human triple negative breast cancer cell line, MDA-MB-231; assay: Cellular uptake of 18F-labeled peptide with blocking by unlabeled peptide; assay type: cell-based; conditions: MDA-MB-231 cells, 74 KBq 18F-labeled peptide, 37° C., blocking with 10-fold non-radioactive peptide; FIG. 1
Procedure: Prepared peptides were first analyzed in vitro using the human triple negative breast cancer cell line, MDA-MB-231. In brief, cells were detached using non-enzymatic buffer and 0.5 million cells per tube will be incubated with 74 KBq (2 μCi) of ^18F-labeled peptide in 100 μL phosphate-buffered saline (PBS) at 37° C. Experiments were done in triplicate and repeated three times to ensure reproducibility. Blocking was carried out using a 10-fold molar equivalence of the corresponding non-radioactive peptide analogue. The integrity of the radiolabeled compounds and their extent of decomposition was analyzed by RP-HPLC.

| Substance | accumulation in breast tumors (PET) (MDA-MB-231 tumors) | tumor uptake on PET compared to Pep61 (MDA-MB-231 tumors) | cellular uptake [1] |
| --- | --- | --- | --- |
| A-D-K-P-D-M-G-E-I-A-S-F-D-K(NOTA) (ADKPDMGEIASFDK(NOTA); also: 18F label) [Pep62, tested 18F-labeled] | clear accumulation in breast tumors; also recorded: Accumulation and visualization of both peptides in breast tumors | higher and more uniform uptake compared to Pep61 | taken up by MDA-MB-231 cells in a specific manner |
| A-D-K(NOTA)-P-D-M-G-E-I-A-S-F-D-K (ADK(NOTA)PDMGEIASFDK; also: 18F label) [Pep61, tested 18F-labeled] | clear accumulation in breast tumors; also recorded: Accumulation and visualization of both peptides in breast tumors | – | taken up by MDA-MB-231 cells in a specific manner |
